How the values were obtained:
S. aureus = experiment: Antibacterial test on fiber samples immersed in polycationic polypeptide aqueous solution, bactericidal activity value (L); assay type: cell-based, Staphylococcus aureus
Excerpt: (§1) Here, the bactericidal activity value (L) is defined by the following equation (for details, see the Approval Standard for Antibacterial and Deodorant Textile Products set forth by the Japan Textile Evaluation Technology Council (JTETC)). When this value (L) is ≥0, the textile product is considered to have an antibacterial effect, and it becomes eligible to be approved as a bacteriostatically treated textile product (with SEK Mark).
(§2) L (bactericidal activity value)=(Ma−Mc)
(§3) Ma: Average common logarithm value of the viable cell count or the ATP amount, which was measured for three samples immediately after the inoculation thereof onto a standard cloth.
(§4) Mc: Average common logarithm value of the viable cell count or the ATP amount, which was measured for three samples after 18 hours of culturing on an antibacterially treated cloth.
(§5) Threads, each of which was cut into 0.4 g in weight, were used as the fiber samples. Into a polycationic polypeptide aqueous solution of a prescribed concentration which was heated to a prescribed temperature (25, 50 or 75° C.), the samples were immersed for a prescribed period of time. The followings were used as the polycationic polypeptide.
(§6) Then, the fiber samples were washed by a simple method which was modified from the washing method according to JIS L-0217 103 (“Antimicrobial Agent of SENKA Corporation”; Everything about antimicrobial agents, p. 595-598, 1997, Sen-i Co., Ltd.), and the thus washed samples were dried in the air. The washing method was carried out by the following steps.
(§7) (1) Water having a temperature of 40° C. is filled into the washer water tank up to the highest line for the water level. To this water, “JAFET standard detergent (polyoxyethylene alkyl ether)” is added at a ratio of 40 mL of the detergent to 30 L of water to obtain washing solution.
(§8) (2) The fiber samples are placed into the washing solution in such a manner that the bath ratio (the weight ratio of the fibers and the washing solution at the time of washing of the fibers after the immersion) becomes 1:30, and the washing machine is operated for 25 minutes.
(§9) (3) The fiber samples are dehydrated by a dehydrator. The dehydration is carried out for 7 to 8 minutes.
(§10) (4) The washing solution is replaced with fresh water at room temperature, and rinsing and washing are performed in the filled water for 4 minutes at the same bath ratio.
(§11) (5) The fiber samples are dehydrated by a dehydrator. The dehydration is carried out for 7 to 8 minutes.
(§12) (6) Rinsing and washing are performed with running water for 2 minutes.
(§13) (7) Considering the above (1) to (6) as 5 washings, these steps are repeated twice to have the fiber samples be “washed 10 times”.
(§14) (8) The fiber samples are dehydrated by a dehydrator.
(§15) A bacterial suspension which was cultured in normal broth at 30° C. for 18 hours was mixed and diluted to prepare a diluted bacterial suspension having a concentration of 10^6 cells/mL. Placed into a vial was 0.4 g of fiber sample which was not washed or washed 10 times. Thereto inoculated was 400 μL of the diluted bacterial suspension, which was then allowed to soak into the sample, and the sample was incubated at 37° C. After 18 hours, 20 mL of physiological saline was added to the vial and the resultant was stirred using a mixer (5 seconds×5 times) to suspend the bacterial cells. The thus obtained suspension was diluted as appropriate, and the number of bacterium was counted to calculate the bactericidal activity value (L) based on the aforementioned equation. Here, the tested bacteria were E. coli and S. aureus.

E. coli = experiment: as above; assay type: cell-based, Escherichia coli
Excerpt: as §1, §2, §3, §4, §5, §6, §7, §8, §9, §10, §11, §12, §13, §14, §15

[1] = Acryl 100% thread, immersion 25° C., 2 hours
[2] = Acryl 100% thread, immersion 25° C., 3 hours
[3] = Acryl 100% thread, immersion 25° C., 24 hours
[4] = Cotton 100% thread, immersion 50° C., 2 hours
[5] = Cotton 100% thread, immersion 50° C., 3 hours
[6] = Cotton 100% thread, immersion 50° C., 24 hours
[7] = Cotton 100% thread, immersion 75° C., 2 hours
[8] = Cotton 100% thread, immersion 75° C., 3 hours
[9] = Cotton 100% thread, immersion 75° C., 24 hours
[10] = Hemp 100% thread, immersion 25° C., 2 hours
[11] = Hemp 100% thread, immersion 25° C., 3 hours
[12] = Hemp 100% thread, immersion 25° C., 24 hours
[13] = Nylon 100% thread, immersion 25° C., 2 hours
[14] = Nylon 100% thread, immersion 25° C., 3 hours
[15] = Nylon 100% thread, immersion 25° C., 24 hours
[16] = Polyester 100% thread, immersion 25° C., 2 hours
[17] = Polyester 100% thread, immersion 25° C., 3 hours
[18] = Polyester 100% thread, immersion 25° C., 24 hours
[19] = Rayon 100% thread, immersion 25° C., 2 hours
[20] = Rayon 100% thread, immersion 25° C., 3 hours
[21] = Rayon 100% thread, immersion 25° C., 24 hours
[22] = Wool 100% thread, immersion 50° C., 2 hours
[23] = Wool 100% thread, immersion 50° C., 3 hours
[24] = Wool 100% thread, immersion 50° C., 24 hours
[25] = Wool 100% thread, immersion 75° C., 2 hours
[26] = Wool 100% thread, immersion 75° C., 3 hours
[27] = Wool 100% thread, immersion 75° C., 24 hours
[28] = cotton thread and wool, immersion 50° C., 2 hours or more (text summary of Table 1)
[29] = threads of various materials, immersion 25° C., 2 hours or more (text summary of Table 2)

With ϵ-polylysine [ε-polylysine] the “ε-polylysine concentration at which L ≥ 0 was attained, S. aureus” value (from here on “ε-polylysine concentration … S. aureus”) (S. aureus; [1]) was 500 ppm, the “ε-polylysine concentration … S. aureus” value (S. aureus; [2]) was 500 ppm and the “ε-polylysine concentration … S. aureus” value (S. aureus; [3]) was 250 ppm. For the same substance, the “ε-polylysine concentration … S. aureus” value (S. aureus; [4]) was 500 ppm, the “ε-polylysine concentration … S. aureus” value (S. aureus; [5]) was 500 ppm and the “ε-polylysine concentration … S. aureus” value (S. aureus; [6]) was 500 ppm. The “ε-polylysine concentration … S. aureus” value (S. aureus; [7]) was 500 ppm, the “ε-polylysine concentration … S. aureus” value (S. aureus; [8]) was 500 ppm and the “ε-polylysine concentration … S. aureus” value (S. aureus; [9]) was 500 ppm. For the same substance, the “ε-polylysine concentration … S. aureus” value (S. aureus; [10]) was 500 ppm, the “ε-polylysine concentration … S. aureus” value (S. aureus; [11]) was 500 ppm and the “ε-polylysine concentration … S. aureus” value (S. aureus; [12]) was 250 ppm. The “ε-polylysine concentration … S. aureus” value (S. aureus; [13]) was 500 ppm, the “ε-polylysine concentration … S. aureus” value (S. aureus; [14]) was 500 ppm and the “ε-polylysine concentration … S. aureus” value (S. aureus; [15]) was 250 ppm. The “ε-polylysine concentration … S. aureus” value (S. aureus; [16]) was 500 ppm, the “ε-polylysine concentration … S. aureus” value (S. aureus; [17]) was 500 ppm and the “ε-polylysine concentration … S. aureus” value (S. aureus; [18]) was 250 ppm. For the same substance, the “ε-polylysine concentration … S. aureus” value (S. aureus; [19]) was 500 ppm, the “ε-polylysine concentration … S. aureus” value (S. aureus; [20]) was 500 ppm and the “ε-polylysine concentration … S. aureus” value (S. aureus; [21]) was 250 ppm. The “ε-polylysine concentration … S. aureus” value (S. aureus; [22]) was 500 ppm, the “ε-polylysine concentration … S. aureus” value (S. aureus; [23]) was 500 ppm and the “ε-polylysine concentration … S. aureus” value (S. aureus; [24]) was 500 ppm. For the same substance, the “ε-polylysine concentration … S. aureus” value (S. aureus; [25]) was 500 ppm, the “ε-polylysine concentration … S. aureus” value (S. aureus; [26]) was 500 ppm and the “ε-polylysine concentration … S. aureus” value (S. aureus; [27]) was 500 ppm. For the same substance, the “concentration of ϵ-polylysine aqueous solution at which bacteriostatic effect against S. aureus was attained” value (S. aureus; [28]) was 500 ppm, the “concentration of ϵ-polylysine aqueous solution at which bacteriostatic effect against S. aureus was attained” value (S. aureus; [29]) was 500 ppm and the “ε-polylysine concentration at which L ≥ 0 was attained, E. coli” value (“ε-polylysine concentration … E. coli” for short) (E. coli; [1]) was 500 ppm. For the same substance, the “ε-polylysine concentration … E. coli” value (E. coli; [2]) was 500 ppm, the “ε-polylysine concentration … E. coli” value (E. coli; [3]) was 250 ppm and the “ε-polylysine concentration … E. coli” value (E. coli; [4]) was 2,500 ppm. For the same substance, the “ε-polylysine concentration … E. coli” value (E. coli; [5]) was 2,500 ppm, the “ε-polylysine concentration … E. coli” value (E. coli; [6]) was 2,500 ppm and the “ε-polylysine concentration … E. coli” value (E. coli; [7]) was 2,500 ppm. For the same substance, the “ε-polylysine concentration … E. coli” value (E. coli; [8]) was 2,500 ppm, the “ε-polylysine concentration … E. coli” value (E. coli; [9]) was 2,500 ppm and the “ε-polylysine concentration … E. coli” value (E. coli; [10]) was 500 ppm. The “ε-polylysine concentration … E. coli” value (E. coli; [11]) was 500 ppm, the “ε-polylysine concentration … E. coli” value (E. coli; [12]) was 800 ppm and the “ε-polylysine concentration … E. coli” value (E. coli; [13]) was 500 ppm. For the same substance, the “ε-polylysine concentration … E. coli” value (E. coli; [14]) was 500 ppm, the “ε-polylysine concentration … E. coli” value (E. coli; [15]) was 250 ppm and the “ε-polylysine concentration … E. coli” value (E. coli; [16]) was 500 ppm. For the same substance, the “ε-polylysine concentration … E. coli” value (E. coli; [17]) was 500 ppm, the “ε-polylysine concentration … E. coli” value (E. coli; [18]) was 800 ppm and the “ε-polylysine concentration … E. coli” value (E. coli; [19]) was 500 ppm. For the same substance, the “ε-polylysine concentration … E. coli” value (E. coli; [20]) was 500 ppm, the “ε-polylysine concentration … E. coli” value (E. coli; [21]) was 250 ppm and the “ε-polylysine concentration … E. coli” value (E. coli; [22]) was 2,500 ppm. The “ε-polylysine concentration … E. coli” value (E. coli; [23]) was 2,500 ppm, the “ε-polylysine concentration … E. coli” value (E. coli; [24]) was 2,500 ppm and the “ε-polylysine concentration … E. coli” value (E. coli; [25]) was 2,500 ppm. The “ε-polylysine concentration … E. coli” value (E. coli; [26]) was 2,500 ppm, the “ε-polylysine concentration … E. coli” value (E. coli; [27]) was 2,500 ppm and the “concentration of ϵ-polylysine aqueous solution at which bacteriostatic effect against E. coli was attained” value (E. coli; [28]) was 2,500 ppm. The “concentration of ϵ-polylysine aqueous solution at which bacteriostatic effect against E. coli was attained” value (E. coli; [29]) was 500 ppm.

Reference: patent US9951467B2, “Bacteriostatically treating method” (JNC CORPORATION, priority 2009, dated 2018)
